Assay results from ChEMBL document CHEMBL1137777, “Design, synthesis, and evaluation of indolinones as triple angiokinase inhibitors and the discovery of a highly specific 6-methoxycarbonyl-substituted indolinone (BIBF 1120)” (J Med Chem, 2009).

Tests used:
HUVEC = assay: cells; conditions: Homo sapiens, 3 h
Description: Antiangiogenic activity in HUVEC assessed as inhibition of VEGF-induced cell proliferation by [3H]thymidine incorporation assay

[1] = target: Vascular endothelial growth factor receptor 2 (Homo sapiens, UniProt P35968); assay: Inhibition of human VEGFR2 expressed in Sf9 cells
[2] = target: Vascular endothelial growth factor receptor 1 (Homo sapiens, UniProt P17948)
Description: Inhibition of human VEGFR1

[3] = target: Fibroblast growth factor receptor 1 (Homo sapiens, UniProt P11362)
Description: Inhibition of human FGFR1

[4] = Half life in NMRI nu/nu mouse at 50 mg/kg, po administered as single dose; assay type: ADME, organism-based; parameters: dose 50 mg/kg, route oral; conditions: in vivo
[5] = Cmax in NMRI nu/nu mouse at 50 mg/kg, po administered as single dose; assay type: ADME, organism-based; parameters: dose 50 mg/kg, route oral; conditions: in vivo
[6] = target: Platelet-derived growth factor receptor alpha (Homo sapiens, UniProt P16234)
Description: Inhibition of human PDGFRalpha

[7] = AUC in NMRI nu/nu mouse at 50 mg/kg, po administered as single dose; assay type: ADME, organism-based, Plasma; parameters: dose 50 mg/kg, route oral; conditions: NMRI nu/nu, plasma
[8] = target: Vascular endothelial growth factor receptor 3 (Homo sapiens, UniProt P35916)
Description: Inhibition of human VEGFR3

HeLa = assay: Antiangiogenic activity against human HeLa cells assessed as inhibition of cell proliferation by [3H]thymidine incorporation assay; assay type: functional, cell-based
[9] = target: Receptor tyrosine-protein kinase erbB-2 (Homo sapiens, UniProt P04626); assay: Inhibition of human HER2
[10] = target: Cyclin-dependent kinase 1 (Homo sapiens, UniProt P06493); assay: Inhibition of human CDK1
[11] = target: Insulin-like growth factor 1 receptor (Homo sapiens, UniProt P08069); assay: Inhibition of human IGFR1
Insulin receptor = Insulin receptor (Homo sapiens, UniProt P06213); assay: Inhibition of human InsR
[12] = target: Cyclin-dependent kinase 4 (Homo sapiens, UniProt P11802); assay: Inhibition of human CDK4
[13] = target: Serine/threonine-protein kinase PLK1 (Homo sapiens, UniProt P53350); assay: Inhibition of human Plk1
[14] = target: Epidermal growth factor receptor (Homo sapiens, UniProt P00533); assay: Inhibition of human EGFR

Chain of Vascular endothelial growth factor receptor 2 (P35968 whole entry): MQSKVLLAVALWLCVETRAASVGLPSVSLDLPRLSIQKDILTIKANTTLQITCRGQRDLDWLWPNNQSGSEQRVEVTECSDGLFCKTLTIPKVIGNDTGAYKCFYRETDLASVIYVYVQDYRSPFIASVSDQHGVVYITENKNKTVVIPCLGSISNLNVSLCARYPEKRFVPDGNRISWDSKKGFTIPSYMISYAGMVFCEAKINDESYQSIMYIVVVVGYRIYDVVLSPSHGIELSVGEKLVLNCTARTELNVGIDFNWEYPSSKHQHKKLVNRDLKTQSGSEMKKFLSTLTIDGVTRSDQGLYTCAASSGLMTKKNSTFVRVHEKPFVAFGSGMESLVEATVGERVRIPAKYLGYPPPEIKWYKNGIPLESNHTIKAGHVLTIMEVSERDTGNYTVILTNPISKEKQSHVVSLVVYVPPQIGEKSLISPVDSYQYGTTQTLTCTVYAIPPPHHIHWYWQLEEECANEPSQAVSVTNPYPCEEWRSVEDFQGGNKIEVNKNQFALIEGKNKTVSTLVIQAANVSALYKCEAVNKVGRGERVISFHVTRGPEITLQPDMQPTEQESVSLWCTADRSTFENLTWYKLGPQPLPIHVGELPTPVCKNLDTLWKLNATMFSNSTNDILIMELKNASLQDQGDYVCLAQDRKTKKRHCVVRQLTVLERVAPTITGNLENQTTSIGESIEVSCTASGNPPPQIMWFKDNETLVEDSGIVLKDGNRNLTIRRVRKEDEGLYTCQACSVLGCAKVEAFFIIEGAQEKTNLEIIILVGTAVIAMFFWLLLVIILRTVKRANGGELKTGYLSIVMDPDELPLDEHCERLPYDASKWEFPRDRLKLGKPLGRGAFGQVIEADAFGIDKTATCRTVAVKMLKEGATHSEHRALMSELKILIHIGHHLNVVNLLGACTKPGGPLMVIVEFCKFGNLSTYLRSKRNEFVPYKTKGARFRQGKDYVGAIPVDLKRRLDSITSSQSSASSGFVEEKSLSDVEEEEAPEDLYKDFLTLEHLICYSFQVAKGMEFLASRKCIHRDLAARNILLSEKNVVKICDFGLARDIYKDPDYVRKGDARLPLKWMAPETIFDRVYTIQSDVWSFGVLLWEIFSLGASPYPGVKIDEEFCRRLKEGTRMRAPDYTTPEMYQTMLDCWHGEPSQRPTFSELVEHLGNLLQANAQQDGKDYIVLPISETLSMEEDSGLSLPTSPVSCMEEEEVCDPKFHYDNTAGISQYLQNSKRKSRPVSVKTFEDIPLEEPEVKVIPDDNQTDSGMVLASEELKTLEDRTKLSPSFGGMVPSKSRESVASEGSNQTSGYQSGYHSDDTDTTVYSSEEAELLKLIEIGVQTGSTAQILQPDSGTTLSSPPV
Chain of Insulin receptor (P06213 28-758 limits assumed): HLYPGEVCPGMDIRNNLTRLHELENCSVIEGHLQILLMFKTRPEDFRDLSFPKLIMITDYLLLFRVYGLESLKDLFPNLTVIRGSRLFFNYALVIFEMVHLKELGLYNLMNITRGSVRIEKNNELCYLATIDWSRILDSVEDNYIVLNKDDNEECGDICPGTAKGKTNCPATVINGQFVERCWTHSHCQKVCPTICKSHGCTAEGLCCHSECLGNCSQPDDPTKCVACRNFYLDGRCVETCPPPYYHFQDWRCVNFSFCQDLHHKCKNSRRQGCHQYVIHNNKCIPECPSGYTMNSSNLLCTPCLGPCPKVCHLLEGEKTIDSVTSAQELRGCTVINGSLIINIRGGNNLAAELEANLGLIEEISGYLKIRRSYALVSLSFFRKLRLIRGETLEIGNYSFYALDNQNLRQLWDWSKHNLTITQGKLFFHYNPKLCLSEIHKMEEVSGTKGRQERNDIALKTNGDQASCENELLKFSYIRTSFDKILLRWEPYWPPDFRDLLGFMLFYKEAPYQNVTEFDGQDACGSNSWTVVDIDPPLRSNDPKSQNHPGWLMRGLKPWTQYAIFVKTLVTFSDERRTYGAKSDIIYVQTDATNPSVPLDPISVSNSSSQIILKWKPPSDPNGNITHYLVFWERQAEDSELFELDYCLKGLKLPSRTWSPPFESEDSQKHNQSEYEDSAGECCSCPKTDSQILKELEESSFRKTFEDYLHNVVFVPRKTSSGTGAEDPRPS
Chain of Insulin receptor (P06213 763-1382 limits assumed): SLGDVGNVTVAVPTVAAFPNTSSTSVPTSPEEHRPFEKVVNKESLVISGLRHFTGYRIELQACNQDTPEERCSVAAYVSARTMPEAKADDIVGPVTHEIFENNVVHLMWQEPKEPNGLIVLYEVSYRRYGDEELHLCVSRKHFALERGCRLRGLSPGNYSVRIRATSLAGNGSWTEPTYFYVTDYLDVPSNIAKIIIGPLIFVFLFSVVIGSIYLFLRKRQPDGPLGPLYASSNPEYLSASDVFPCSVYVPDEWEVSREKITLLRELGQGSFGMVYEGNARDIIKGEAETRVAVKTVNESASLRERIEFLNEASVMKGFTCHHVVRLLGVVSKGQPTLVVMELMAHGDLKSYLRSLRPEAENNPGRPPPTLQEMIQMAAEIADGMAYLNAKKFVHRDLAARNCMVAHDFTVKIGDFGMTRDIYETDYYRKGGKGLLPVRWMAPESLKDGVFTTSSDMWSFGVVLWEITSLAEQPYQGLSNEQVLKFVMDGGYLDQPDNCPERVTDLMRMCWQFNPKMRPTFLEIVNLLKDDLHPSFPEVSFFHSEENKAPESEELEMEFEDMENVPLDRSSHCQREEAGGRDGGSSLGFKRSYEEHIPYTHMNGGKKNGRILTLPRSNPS
Chain of Platelet-derived growth factor receptor alpha (P16234 whole entry): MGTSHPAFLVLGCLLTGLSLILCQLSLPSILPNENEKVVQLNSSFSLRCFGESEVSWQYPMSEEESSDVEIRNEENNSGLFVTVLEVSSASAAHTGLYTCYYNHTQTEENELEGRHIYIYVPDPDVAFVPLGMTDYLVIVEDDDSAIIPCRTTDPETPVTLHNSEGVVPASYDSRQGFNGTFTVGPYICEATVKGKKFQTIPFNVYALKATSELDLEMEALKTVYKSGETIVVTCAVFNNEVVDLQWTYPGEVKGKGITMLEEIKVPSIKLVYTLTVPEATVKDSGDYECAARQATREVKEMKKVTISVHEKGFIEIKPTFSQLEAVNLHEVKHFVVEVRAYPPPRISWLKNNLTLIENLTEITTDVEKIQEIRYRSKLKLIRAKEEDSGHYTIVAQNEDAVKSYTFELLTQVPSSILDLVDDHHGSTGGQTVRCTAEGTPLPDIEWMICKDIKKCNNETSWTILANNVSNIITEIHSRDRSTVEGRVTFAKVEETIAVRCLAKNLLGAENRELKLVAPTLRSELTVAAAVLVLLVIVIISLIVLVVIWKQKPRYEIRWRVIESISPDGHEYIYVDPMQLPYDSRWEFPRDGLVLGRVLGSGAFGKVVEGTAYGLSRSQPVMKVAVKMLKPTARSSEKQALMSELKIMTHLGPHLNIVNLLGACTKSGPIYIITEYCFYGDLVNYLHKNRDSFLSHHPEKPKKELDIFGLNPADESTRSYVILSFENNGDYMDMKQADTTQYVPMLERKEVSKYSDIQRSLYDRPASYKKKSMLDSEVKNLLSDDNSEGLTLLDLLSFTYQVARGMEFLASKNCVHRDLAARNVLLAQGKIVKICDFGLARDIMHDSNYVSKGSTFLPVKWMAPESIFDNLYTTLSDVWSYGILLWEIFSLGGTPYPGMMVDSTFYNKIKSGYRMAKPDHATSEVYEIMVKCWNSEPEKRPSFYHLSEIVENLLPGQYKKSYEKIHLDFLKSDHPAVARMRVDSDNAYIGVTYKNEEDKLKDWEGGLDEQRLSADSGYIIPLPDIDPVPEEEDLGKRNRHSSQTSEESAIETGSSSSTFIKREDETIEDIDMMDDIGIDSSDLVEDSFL
Chain of Cyclin-dependent kinase 4 (P11802 whole entry): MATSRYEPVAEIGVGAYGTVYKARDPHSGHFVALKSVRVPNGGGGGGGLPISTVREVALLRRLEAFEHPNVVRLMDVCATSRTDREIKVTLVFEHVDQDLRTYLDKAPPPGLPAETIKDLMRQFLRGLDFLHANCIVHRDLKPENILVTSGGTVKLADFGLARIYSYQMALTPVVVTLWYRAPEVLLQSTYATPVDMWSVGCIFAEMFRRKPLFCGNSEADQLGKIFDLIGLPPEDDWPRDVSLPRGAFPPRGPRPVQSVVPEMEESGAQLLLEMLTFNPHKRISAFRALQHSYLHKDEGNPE
Chain of Cyclin-dependent kinase 1 (P06493 whole entry): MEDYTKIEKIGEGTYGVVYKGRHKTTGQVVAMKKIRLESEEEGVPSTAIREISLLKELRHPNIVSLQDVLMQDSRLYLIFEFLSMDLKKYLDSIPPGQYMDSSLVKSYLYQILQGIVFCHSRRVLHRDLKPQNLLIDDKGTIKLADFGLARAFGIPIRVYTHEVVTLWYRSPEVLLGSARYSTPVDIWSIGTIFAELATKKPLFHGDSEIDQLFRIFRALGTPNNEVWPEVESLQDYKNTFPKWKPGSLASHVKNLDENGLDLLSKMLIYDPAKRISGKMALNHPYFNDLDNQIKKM
Chain of Serine/threonine-protein kinase PLK1 (P53350 whole entry): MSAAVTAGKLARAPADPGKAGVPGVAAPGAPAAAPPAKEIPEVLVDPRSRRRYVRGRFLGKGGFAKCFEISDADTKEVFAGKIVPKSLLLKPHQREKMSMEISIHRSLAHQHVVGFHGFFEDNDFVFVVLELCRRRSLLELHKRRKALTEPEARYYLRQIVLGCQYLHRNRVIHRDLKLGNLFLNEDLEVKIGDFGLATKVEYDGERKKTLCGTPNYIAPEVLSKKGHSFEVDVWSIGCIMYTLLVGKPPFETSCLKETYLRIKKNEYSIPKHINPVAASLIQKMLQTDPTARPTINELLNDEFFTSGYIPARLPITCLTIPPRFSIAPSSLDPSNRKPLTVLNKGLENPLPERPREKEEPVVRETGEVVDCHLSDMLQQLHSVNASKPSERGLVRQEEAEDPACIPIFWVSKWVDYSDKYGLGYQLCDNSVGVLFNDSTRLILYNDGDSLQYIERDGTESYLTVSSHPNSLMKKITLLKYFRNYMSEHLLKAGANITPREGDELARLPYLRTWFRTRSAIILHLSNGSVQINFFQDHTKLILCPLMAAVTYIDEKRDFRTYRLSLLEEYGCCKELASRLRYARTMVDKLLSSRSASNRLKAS

| Compound | EC50 (HUVEC) [nM] | IC50 [1] [nM] | other results |
| --- | --- | --- | --- |
| CN(C)C(=O)c1ccc2c(c1)NC(=O)/C2=C(\Nc1ccc(CN2CCCCC2)cc1)c1ccccc1 | 542 | 1310 | – |
| CNC(=O)c1ccc2c(c1)NC(=O)/C2=C(\Nc1ccc(CN2CCCCC2)cc1)c1ccccc1 | 1910 | 2100 | – |
| CC(=O)Nc1ccc2c(c1)NC(=O)/C2=C(\Nc1ccc(CN2CCCCC2)cc1)c1ccccc1 | – | > 3000 | – |
| COC(=O)c1ccc2c(c1)NC(=O)/C2=C(\Nc1ccc(NC(=O)CN2CCN(C)CC2)cc1)c1ccccc1 | 83 | 83 | – |
| COC(=O)c1ccc2c(c1)NC(=O)/C2=C(\Nc1ccc(NC(=O)CN(C)C)cc1)c1ccccc1 | 88 | 119 | – |
| COC(=O)c1ccc2c(c1)NC(=O)/C2=C(\Nc1ccc(CN2CCCC2=O)cc1)c1ccccc1 | – | 245 | – |
| COC(=O)c1ccc2c(c1)NC(=O)/C2=C(\NC1CCC(NC(=O)CN(C)C)CC1)c1ccccc1 (stereo unspecified) | – | > 10000 | – |
| COC(=O)c1ccc2c(c1)NC(=O)/C2=C(\Nc1cccc(C(=O)N(C)CCCN(C)C)c1)c1ccccc1 | – | 248 | – |
| COC(=O)c1ccc2c(c1)NC(=O)/C2=C(\NC1CCN(C)CC1)c1ccccc1 | – | > 10000 | – |
| CCN(C)C(=O)c1ccc2c(c1)NC(=O)/C2=C(\Nc1ccc(CN2CCCCC2)cc1)c1ccccc1 | 718 | 1450 | – |
| COC(=O)c1ccc2c(c1)NC(=O)/C2=C(\Nc1ccc(CN2CCCCC2)cc1)c1ccccc1 | 103 | 36 | IC50 [2]: 146 nM; IC50 [3]: 71 nM; half-life [4]: 3.5 h; Cmax [5]: 952 ng/mL; IC50 [6]: 54 nM; AUC [7]: 5250 ng·h/mL; IC50 [8]: 32 nM; EC50 (HeLa): > 1000 nM |
| O=C1Nc2cc(-n3cccc3)ccc2/C1=C(/Nc1ccc(CN2CCCCC2)cc1)c1ccccc1 | 585 | 791 | – |
| Nc1ccc2c(c1)NC(=O)/C2=C(\Nc1ccc(CN2CCCCC2)cc1)c1ccccc1 | 414 | 132 | – |
| NC(=O)c1ccc2c(c1)NC(=O)/C2=C(\Nc1ccc(CN2CCCCC2)cc1)c1ccccc1 | 342 | 763 | IC50 [9]: > 10000 nM; IC50 [10]: > 10000 nM; IC50 [11]: > 10000 nM; IC50 (Insulin receptor): > 10000 nM; IC50 [12]: > 10000 nM; IC50 [13]: > 10000 nM; IC50 [14]: > 10000 nM |
| COC(=O)c1ccc2c(c1)NC(=O)/C2=C(\Nc1ccc(N(CC(=O)N(C)C)C(C)=O)cc1)c1ccccc1 | 37 | 8 | – |
| COC(=O)c1ccc2c(c1)NC(=O)/C2=C(\Nc1ccc(CN(C)C)cc1)c1ccccc1 | – | 64 | – |
